# Test results taken from patent publication EP0603240B1, “SAFENING HERBICIDAL PYRAZOLYLSULFONYLUREAS” (priority 1991, dated 1993).
# How the values were obtained:
# [1] = test system: barnyardgrass (Echinochloa crusgalli); assay: Example 5, Procedure I: Herbicide No. 1 + alachlor (No. 7) with Antidote Nos. 15 and 16; format: in vivo
# Method: (§1) Containers were filled and compacted with a fumigated silt loam top soil to a depth of about 1.3 cm from the top of the container. A first container was designated as an untreated control, a second container was designated as a herbicide control, and a third container was designated as a herbicide + antidote test container. Each of the containers was seeded with a crop species. A measured amount of herbicide dispersed or dissolved in acetone was applied to a measured quantity of soil. To this same quantity of soil treated with herbicide, there was added a measured amount of antidote dispersed or dissolved in acetone. The quantity of soil treated with the herbicide and antidote was thoroughly mixed to incorporate the herbicide and antidote in the soil uniformly. The seed bed in the third container of soil was covered with the soil treated with the herbicide and antidote and the container was leveled. For each test series, the seed beds of the first and second containers were likewise covered by soil layers. the cover layer of the first container was not treated with herbicide or antidote.
# (§2) The containers were then placed on a bench in a greenhouse and sub-irrigated as required for the duration of the test. […] Plant response is measured in terms of percent injury. Antidote efficacy is indicated as the difference in plant injury by the herbicide(s) without the antidote and with the antidote.
# (§3) In the series of greenhouse tests described below, for routine screening purposes the herbicide/antidote compositions were tested in crop/weed combinations involving corn as the crop and either or both of the weeds barnyardgrass (Echinochloa crusgalli), a monocotyledonous weed, and velvetleaf (Abutilon theophrasti), a dicotyledonous weed. In the tables below, these weeds are indicated by the symbols "BYG" and "VL", respectively.
# (§4) This example describes tests with Antidote Nos. 15 and 16 to safen Herbicide No. 1 according to Procedure I using corn and the weeds barnyardgrass and velvetleaf as the test plants.
# (§5) In the tests described in this example, the same procedure described in Example 4 was performed simultaneously therewith and under the same conditions, except that a co-herbicide, alachlor, was included in the same composition with Herbicide No. 1 and Antidote Nos. 15 and 16. Alachlor (Herbicide No. 7 herein) is the active ingredient in the commercial product LASSO® herbicide.
# [2] = test system: velvetleaf (Abutilon theophrasti); assay: as above; format: in vivo
# Method: as §1, §2, §3, §4, §5
# corn [3] = assay: Example 25, greenhouse post-emergence test: Antidote Nos. 1 and 2 against Herbicide Nos. 1-3; format: in vivo, Corn (Pioneer 3424 variety); conditions: for % Inhibition Corn: no herbicide; for inhibition at 0.25 g/ha / inhibition at 0.74 g/ha / inhibition at 2.5 g/ha / inhibition at 0.07 g/ha: Zea mays
# Method: Additional tests were conducted in the greenhouse in order to evaluate the antidotal efficacy of Antidote Nos. 1 (dichlormid) and 2 (naphthalic anhydride) in protecting corn from the herbicidal activity of Herbicide Nos. 1-3 (i.e., NC-319, NC-319 EX and NC-311, respectively). The chemicals were tested in both preemergence and post-emergence modes of application. The herbicides were prepared and applied as wettable powders; dichlormid was applied as an emulsifiable concentrate, while the naphthalic anhydride was applied as a coating on the corn seed prior to planting.
# Corn seeds (Pioneer 3424 variety) were planted in alluvial soil containing compost and fertilizer in pots 12 cm. in diameter. Test chemicals were applied with a spray gun at the spray volume rate of 11.2 l/ha at the time of seeding in the preemergence tests and seven (7) days after seeding in the post-emergence tests, when the check (control) plants were at the 16-20 cm., 3.0-3.2 leaf stage, and naphthalic anhydride coated seed grown plants were at the 14-16 cm., 2.8-3.0 leaf stage.
# Test data from the preemergence tests are shown in Table 25A and from the post-emergence tests in Table 25B. In the tables, the concentration of chemicals is shown in terms of active ingredient in grams per hectare (G/ha); concentrations of the naphthalic anhydride were not measured per se, but were present as in conventional, normally-coated applications. Corn injury is shown in terms of percent inhibition of growth.
# corn [4] = assay: Example 26, field trials, pre-plant incorporation (PPI): corn growth reduction; format: in vivo; conditions: for corn growth reduction (GR) / maximum injury level (GR): PPI
# Method: In order to better understand and to confirm the results of greenhouse tests with herbicidal compositions comprising representative compounds according to Formula I and an antidote with and without a co-herbicide, a large number of field trials were conducted. This example provides a summary of those field trials.
# The primary purpose of the field trials summarized herein was to ascertain the amount of corn injury caused by a compound according to Formula I. viz. Herbicide No. 1, with and without a co-herbicide of the α-chloroacetanilide class, viz., Herbicide Nos. 6 and 7, and the extent that any corn injury could be safened by a dichloroacetamide antidotal compound, viz., Antidote No. 15.
# Corn injury is generally expressed, in broad terms, in stand reduction, growth reduction, malformed plants and other more specific effects. For purposes of the summary here, the results of a plurality of field trials are expressed in terms of growth reduction (GR), i.e., a significant reduction in plant height of the corn stand. A common criteria for commercially-acceptable corn injury is an amount equal to or less than 10% malformed plants or stand reduction and for present reporting purposes, no greater than about 15% growth reduction. The corn injury/safening described for these field trials refers to commercially-unacceptable to commercially-acceptable performance.
# In the field trials from a wide distribution of trial locations, soil types (all having in excess of 2% organic matter), climatic effects, etc., the test chemicals were applied as tank mixes in various modes of application, i.e., pre-plant incorporation (PPI) and preemergence surface application (PRE). Test plots were small plots with three replications in a randomized complete block design. Observations were made and recorded in a period of from 31-50 days after treatment.
# [5] = Herbicide No.1 4.48 + No.7 0.56 kg/ha + antidote 0.56 kg/ha
# [6] = Herbicide No.1 4.48 + No.7 0.56 kg/ha + antidote 2.24 kg/ha
# [7] = Herbicide No.1 4.48 + No.7 2.24 kg/ha + antidote 0.56 kg/ha
# [8] = Herbicide No.1 4.48 + No.7 2.24 kg/ha + antidote 2.24 kg/ha
# [9] = Herbicide No.1 6.72 + No.7 0.56 kg/ha + antidote 0.56 kg/ha
# [10] = Herbicide No.1 6.72 + No.7 0.56 kg/ha + antidote 2.24 kg/ha
# [11] = Herbicide No.1 6.72 + No.7 2.24 kg/ha + antidote 0.56 kg/ha
# [12] = Herbicide No.1 6.72 + No.7 2.24 kg/ha + antidote 2.24 kg/ha
# [13] = Herbicide No.1 4.48 + No.7 0.56 kg/ha, no antidote
# [14] = Herbicide No.1 4.48 + No.7 2.24 kg/ha, no antidote
# [15] = Herbicide No.1 6.72 + No.7 0.56 kg/ha, no antidote
# [16] = Herbicide No.1 6.72 + No.7 (alachlor) 2.24 kg/ha, no antidote
structure (smiles),measurement,setting,value
CC1(C)OC(c2ccco2)CN1C(=O)C(Cl)Cl (centres unmarked) [compound 15],% Injury BYG,[1]; [5],99%
same,% Injury BYG,[1]; [6],95%
same,% Injury BYG,[1]; [7],100%
same,% Injury BYG,[1]; [8],100%
same,% Injury BYG,[1]; [9],99%
same,% Injury BYG,[1]; [10],99%
same,% Injury BYG,[1]; [11],100%
same,% Injury BYG,[1]; [12],100%
same,% Injury VL,[2]; [5],95%
same,% Injury VL,[2]; [6],95%
same,% Injury VL,[2]; [7],98%
same,% Injury VL,[2]; [8],95%
same,% Injury VL,[2]; [9],95%
same,% Injury VL,[2]; [10],99%
same,% Injury VL,[2]; [11],99%
same,% Injury VL,[2]; [12],95%
C=CCN(CC=C)C(=O)C(Cl)Cl [compound 1],% Inhibition Corn,corn [3]; Antidote alone (rate printed as -),1.4%
same,inhibition at 0.25 g/ha,corn [3]; Antidote at 7.41 G/ha with Herbicide No. 1 at 0.25 G/ha,16.1%
same,inhibition at 0.74 g/ha,corn [3]; Antidote at 7.41 G/ha with Herbicide No. 1 at 0.74 G/ha,16.3%
same,inhibition at 2.5 g/ha,corn [3]; Antidote at 7.41 G/ha with Herbicide No. 1 at 2.5 G/ha,22.4%
same,inhibition at 0.25 g/ha,corn [3]; Antidote at 7.41 G/ha with Herbicide No. 2 at 0.25 G/ha,17.6%
same,inhibition at 0.74 g/ha,corn [3]; Antidote at 7.41 G/ha with Herbicide No. 2 at 0.74 G/ha,15.9%
same,inhibition at 2.5 g/ha,corn [3]; Antidote at 7.41 G/ha with Herbicide No. 2 at 2.5 G/ha,23.7%
same,inhibition at 0.07 g/ha,corn [3]; Antidote at 7.41 G/ha with Herbicide No. 3 at 0.07 G/ha,39.8%
same,inhibition at 0.25 g/ha,corn [3]; Antidote at 7.41 G/ha with Herbicide No. 3 at 0.25 G/ha,73.9%
same,inhibition at 0.74 g/ha,corn [3]; Antidote at 7.41 G/ha with Herbicide No. 3 at 0.74 G/ha,73.1%
COC(=O)c1c(Cl)nn(C)c1S(=O)(=O)NC(=O)Nc1nc(OC)cc(OC)n1 [Herbicide No. 1],% Injury BYG,[1]; [13],99%
same,% Injury BYG,[1]; [14],100%
same,% Injury BYG,[1]; [15],99%
same,% Injury BYG,[1]; [16],100%
same,% Injury VL,[2]; [13],98%
same,% Injury VL,[2]; [14],98%
same,% Injury VL,[2]; [15],98%
same,% Injury VL,[2]; [16],98%
same,corn injury level (GR),"corn [4]; Herbicide No. 1 0.14 kg/ha + Herbicide No. 6 (acetochlor), without an antidote",14.9%
same,corn injury level (GR),"corn [4]; Herbicide No. 1 0.28 kg/ha + Herbicide No. 6 (acetochlor), without an antidote",24.9%
same,corn injury level (GR),"corn [4]; Herbicide No. 1 0.7 kg/ha + Herbicide No. 6 (acetochlor), without an antidote",12.5%
same,corn growth reduction (GR),"corn [4]; Herbicide No. 1 0.07 kg/ha + Herbicide No. 7 (alachlor), without an antidote",9.75%
same,maximum injury level (GR),"corn [4]; Herbicide No. 1 0.07 kg/ha + Herbicide No. 7, without an antidote",48%
same,corn growth reduction (GR),"corn [4]; Herbicide No. 1 0.14 kg/ha + Herbicide No. 7 (alachlor), without an antidote",13.25%
same,maximum injury level (GR),"corn [4]; Herbicide No. 1 0.14 kg/ha + Herbicide No. 7, without an antidote",48%
O=C1OC(=O)c2cccc3cccc1c23 [compound 2],% Inhibition Corn,corn [3]; Antidote alone as seed treatment (concentration not measured),14.5%
same,inhibition at 0.25 g/ha,corn [3]; Antidote as seed treatment (concentration not measured) with Herbicide No. 1 at 0.25 G/ha,14.1%
same,inhibition at 0.74 g/ha,corn [3]; Antidote as seed treatment (concentration not measured) with Herbicide No. 1 at 0.74 G/ha,27.3%
same,inhibition at 2.5 g/ha,corn [3]; Antidote as seed treatment (concentration not measured) with Herbicide No. 1 at 2.5 G/ha,16.7%
same,inhibition at 0.25 g/ha,corn [3]; Antidote as seed treatment (concentration not measured) with Herbicide No. 2 at 0.25 G/ha,8%
same,inhibition at 0.74 g/ha,corn [3]; Antidote as seed treatment (concentration not measured) with Herbicide No. 2 at 0.74 G/ha,24.9%
same,inhibition at 2.5 g/ha,corn [3]; Antidote as seed treatment (concentration not measured) with Herbicide No. 2 at 2.5 G/ha,19%
same,inhibition at 0.07 g/ha,corn [3]; Antidote as seed treatment (concentration not measured) with Herbicide No. 3 at 0.07 G/ha,20.4%
same,inhibition at 0.25 g/ha,corn [3]; Antidote as seed treatment (concentration not measured) with Herbicide No. 3 at 0.25 G/ha,33.7%
same,inhibition at 0.74 g/ha,corn [3]; Antidote as seed treatment (concentration not measured) with Herbicide No. 3 at 0.74 G/ha,58.8%
"CC1(C)OC(c2ccco2)CN1C(=O)C(Cl)Cl (centres unmarked) [Antidote No. 15, Oxazolidine, 3-(dichloroacetyl)-5-(2-furanyl)-2,2-dimethyl]",corn injury level (GR),corn [4]; Herbicide No. 1 0.14 kg/ha + Herbicide No. 6 + Antidote No. 15,10.3%
same,corn injury level (GR),corn [4]; Herbicide No. 1 0.28 kg/ha + Herbicide No. 6 + Antidote No. 15,12.5%
same,corn injury level (GR),corn [4]; Herbicide No. 1 0.7 kg/ha + Herbicide No. 6 + Antidote No. 15,8.6%
same,maximum injury level (GR),corn [4]; Herbicide No. 1 0.07 kg/ha + Herbicide No. 7 + Antidote No. 15 1:1,22%
same,corn growth reduction (GR),corn [4]; Herbicide No. 1 0.07 kg/ha + Herbicide No. 7 + Antidote No. 15 at 1:1 to Herbicide No. 1,7.75%
same,maximum injury level (GR),corn [4]; Herbicide No. 1 0.14 kg/ha + Herbicide No. 7 + Antidote No. 15 1:1,26%
same,corn growth reduction (GR),corn [4]; Herbicide No. 1 0.14 kg/ha + Herbicide No. 7 + Antidote No. 15 at 1:1 to Herbicide No. 1,9.82%
same,"safening of corn, assessment in words","corn [4]; field trials (PPI and PRE), under most conditions",effectively reduced corn GR injury
